Entries after “also recorded” stand apart in the source; their conditions may differ.
Experiments:
PRL-1 = biological target: T1, PRL-1 (Homo sapiens, UniProt Q93096); assay: In vitro PTPase assay, recombinant PRL-1; assay type: biochemical; settings: 0.1-100 μg/ml
T1 construct: GST (N); made in house; host or cells: DHSa (DH5a) bacteria
Source text: (§1) Sodium stibogluconate, suramin, sodium orthovanadate and GST fusion protein of SHP-1 have been described previously (Pathak et al., J. Imumol. 167, 3391 (2001)). Meglumine antimonate was obtained from Aventis. cDNAs of human PRL-1, PRL-2 and PRL-3 coding region were derived by RT-PCR from H9 cells (Safai, et al., Lancet 1, 1438 (1984)) and inserted in frame into the pGEX vector. cDNA of PRL-1R86 was generated by recombinant DNA technique using PRL-1 cDNA as template following established procedures (Jiao, et al., Mol. Cell. Biol. 16, 6985 (1996)). […]
(§2) In vitro PTPase assays were used to determine the effects of compounds on recombinant PTPases, following established procedures using a synthetic phosphotyrosine peptide or DiFMUP as the substrate (Pathak et al., J. Imumol. 167, 3391 (2001)). […] PTPase activity of individual reactions was measured by adding 100 µL of malachite green solution (UBI) and then quantifying the amounts of free phosphate cleaved by the PTPase from the peptide substrate by spectrometry (OD660 nm). […] Relative PTPase activities were calculated based on the formula: (PTPase activity in the presence of an inhibitory compound/PTPase activity in the absence of the compound)× 100%. […]

PRL-2 = biological target: T2, PRL-2 (Homo sapiens, UniProt Q12974); assay: In vitro PTPase assay, recombinant PRL-2; assay type: biochemical
T2 construct: GST (N); made in house; host or cells: DHSa (DH5a) bacteria
Source text: as §1, §2

Renca tumors = Renca tumors in Balb/c mice; assay type: in vivo; settings: end of treatment; listed as SSG
Procedure: Balb/c and athymic nude Balb/c mice (10 weeks old, female, Taconic Farms, Germantown, N.Y.) were inoculated (s.c.) at the flanks with Renca cells (10^6 cells/site). […] The dose of SSG was similar to the effective daily dose of the drug for the treatment of murine leishmaniasis (Murray, H. W., J. D. Berman, and S. D. Wright. 1988. Immunochemotherapy for intracellular Leishmania donovani infection: gamma interferon plus pentavalent antimony. J Infect Dis 157:973). Tumor volume was measured during the study period and calculated using the formula for a prolate spheroid (V=4/3×a2b) (Lindner, D. J., E. C. Borden, and D. V. Kalvakolanu. 1997. Synergistic antitumor effects of a combination of interferons and retinoic acid on human tumor cells in vitro and in vivo. Clin Cancer Res 3:931). Student's t test was used for assessing the significance of tumor volume differences among differential treatment groups. Mouse viability (daily) and body weights (weekly) were also recorded during the study period. At the end of the study, Renca tumors and major internal organs (heart, kidney, liver, lung and spleen) were harvested for histology and immunohistochemistry analysis.

WM9 transfectants = assay: Growth of WM9 transfectants, MTT assay; assay type: cell-based, human; settings: 50 or 100 μg/ml, 6 days
Procedure: NIH3T3 (Yi, et al., Blood 85, 87 (1995)), WM9 (Forsberg, et al., Proc. Nat. Acad Sci. USA 90, 393 (1993)), DU145 (Mickey, et al., Cancer Res. 37, 4049 (1977)), LoVo (Drewinko, et al., Cancer Res. 36, 467 (1976)), HEY (Buick, et al., Cancer Res. 45, 3668 (1985)), U251 (Yoshida, et al., Cancer 50, 410 (1982)), A549 (Giard, et al., J. Natl. Cancer Inst. 51, 1417 (1973)) and SK-N-SH (Helson, et al., Cancer Res. 35, 2594 (1975)) cell lines have been described and were cultured in RPMI 1640 supplemented with 10% fetal calf serum (FCS). For measurement of sodium stibogluconate effects on cell growth in vitro, cells were cultured in the absence (−) or presence (+) of various amounts of sodium stibogluconate for 6 days with viable cells quantified by MTT assays (Mosmann, J. Immunol. Methods 65, 55 (1983)). Percentages of growth inhibition by sodium stibogluconate were calculated (.+−.x
The effects of sodium stibogluconate on intracellular PTPases were assessed using NIH3T3 or WM9 transfectants. NIH3T3 or WM9 cells were transfected with the pBabepuro vector (V) or pBabepuro expression constructs of Flag-tagged PRLs using Lipofectamine (BRL) following the manufacturer's procedures. […]

T1 sequence (Q93096 whole entry): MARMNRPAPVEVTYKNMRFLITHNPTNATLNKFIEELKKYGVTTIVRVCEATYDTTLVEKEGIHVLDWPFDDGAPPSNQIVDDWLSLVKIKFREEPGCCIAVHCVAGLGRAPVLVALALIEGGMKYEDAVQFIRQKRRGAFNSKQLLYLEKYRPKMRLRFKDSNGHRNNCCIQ
T2 sequence (Q12974 whole entry): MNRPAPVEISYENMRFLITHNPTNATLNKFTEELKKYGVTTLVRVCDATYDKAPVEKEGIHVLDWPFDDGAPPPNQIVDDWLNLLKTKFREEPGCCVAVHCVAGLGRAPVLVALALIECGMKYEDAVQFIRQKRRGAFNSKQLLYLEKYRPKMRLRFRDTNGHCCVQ

SMILES | PRL-1 PTPase activity retained (PRL-1) | effect against PRL-2 (PRL-2) | tolerance/survival of treated Balb/c mice (Renca tumors) | growth of R86 cells (WM9 transfectants)
N=C(N)c1ccc(OCCCCCOc2ccc(C(=N)N)cc2)cc1 [pentamidine] | 70-80% | not effective |  | 
CC(=O)N1CCN(c2ccc(OCC3COC(Cn4ccnc4)(c4ccc(Cl)cc4Cl)O3)cc2)CC1 (stereo not drawn) [ketoconazole] | 60-70% | not effective |  | 
O.O.O.O.O.O.O.O.O.O=C([O-])[C@@H]1[O][Sb]2([O-])([O][Sb]34([OH])[O][C@H]([C@H](O)CO)[C@H]([O]3)[C@H](C(=O)[O-])[O]4)[O][C@H]([C@H](O)CO)[C@@H]1[O]2.[Na+].[Na+].[Na+] [sodium stibogluconate] |  |  | tolerated; also recorded: all mice in the treatment group survived | only modest growth inhibition
